Assay results: ChEMBL document CHEMBL5030550, “A late-stage diversification via Heck-Matsuda arylation: Straightforward synthesis and cytotoxic/antiproliferative profiling of novel aryl-labdane-type derivatives” (Bioorg Med Chem Lett, 2021)

Legend:
THP-1 [1] = assay: Cytotoxicity against human THP-1 cells assessed as reduction in cell viability measured after 24 hrs by MTT assay; type: functional, cell-based; details: THP-1, 24 h
THP-1 [2] = assay: Cytotoxicity against human THP-1 cells assessed as reduction in cell viability measured after 72 hrs by MTT assay; type: functional, cell-based; details: THP-1, 72 h
K562 [3] = assay: Cytotoxicity against human K562 cells assessed as reduction in cell viability measured after 24 hrs by MTT assay; type: functional, cell-based; details: K562, 24 h
K562 [4] = assay: Cytotoxicity against human K562 cells assessed as reduction in cell viability measured after 72 hrs by MTT assay; type: functional, cell-based; details: K562, 72 h
MCF7 [5] = assay: Cytotoxicity against human MCF7 cells assessed as reduction in cell viability measured after 24 hrs by MTT assay; type: functional, cell-based; details: MCF7, 24 h
MCF7 [6] = assay: Cytotoxicity against human MCF7 cells assessed as reduction in cell viability measured after 72 hrs by MTT assay; type: functional, cell-based; details: MCF7, 72 h
HUVEC [7] = assay: Cytotoxicity against HUVEC assessed as reduction in cell viability measured after 24 hrs by MTT assay; type: cell-based; details: Homo sapiens
HUVEC [8] = assay: Cytotoxicity against HUVEC assessed as reduction in cell viability measured after 72 hrs by MTT assay; type: cell-based; details: Homo sapiens
K562 [9] = assay: Cell cycle arrest in human K562 cells assessed as accumulation at sub G1 phase at 25 uM measured after 24 hrs by propidium iodide staining based flow cytometry analysis (reference value: 6.5+/- 0.7%); type: functional
K562 [10] = assay: Cell cycle arrest in human K562 cells assessed as accumulation at G1 phase at 25 uM measured after 24 hrs by propidium iodide staining based flow cytometry analysis (reference value: 43.5+/- 0.3%); type: functional
K562 [11] = assay: Cell cycle arrest in human K562 cells assessed as accumulation at S phase at 25 uM measured after 24 hrs by propidium iodide staining based flow cytometry analysis (reference value: 22.8+/- 0.5%); type: functional
K562 [12] = assay: Cell cycle arrest in human K562 cells assessed as accumulation at G2/M phase at 25 uM measured after 24 hrs by propidium iodide staining based flow cytometry analysis (reference value: 25.6+/- 0.7%); type: functional
K562 [13] = assay: Cell cycle arrest in human K562 cells assessed as accumulation at sub G1 phase at 50 uM measured after 24 hrs by propidium iodide staining based flow cytometry analysis (reference value: 6.5+/- 0.7%); type: functional
K562 [14] = assay: Cell cycle arrest in human K562 cells assessed as accumulation at G1 phase at 50 uM measured after 24 hrs by propidium iodide staining based flow cytometry analysis (reference value: 43.5+/- 0.3%); type: functional
K562 [15] = assay: Cell cycle arrest in human K562 cells assessed as accumulation at S phase at 50 uM measured after 24 hrs by propidium iodide staining based flow cytometry analysis (reference value: 22.8+/- 0.5%); type: functional
K562 [16] = assay: Cell cycle arrest in human K562 cells assessed as accumulation at G2/M phase at 50 uM measured after 24 hrs by propidium iodide staining based flow cytometry analysis (reference value: 25.6+/- 0.7%); type: functional
K562 [17] = assay: Cell cycle arrest in human K562 cells assessed as accumulation at sub G1 phase at 100 uM measured after 24 hrs by propidium iodide staining based flow cytometry analysis (reference value: 6.5+/- 0.7%); type: functional
K562 [18] = assay: Cell cycle arrest in human K562 cells assessed as accumulation at G1 phase at 100 uM measured after 24 hrs by propidium iodide staining based flow cytometry analysis (reference value: 43.5+/- 0.3%); type: functional
K562 [19] = assay: Cell cycle arrest in human K562 cells assessed as accumulation at S phase at 100 uM measured after 24 hrs by propidium iodide staining based flow cytometry analysis (reference value: 22.8+/- 0.5%); type: functional
K562 [20] = assay: Cell cycle arrest in human K562 cells assessed as accumulation at G2/M phase at 100 uM measured after 24 hrs by propidium iodide staining based flow cytometry analysis (reference value: 25.6+/- 0.7%); type: functional
K562 [21] = assay: Induction of ROS production in human K562 cells at 100 uM incubated for 24 hrs relative to control; type: functional
K562 [22] = assay: Induction of apoptosis in human K562 cells at 25 uM after 24 hrs by PI staining based flow cytometric analysis (reference value: 0.1+/- 0.05%); type: functional
K562 [23] = assay: Induction of apoptosis in human K562 cells at 50 uM after 24 hrs by PI staining based flow cytometric analysis (reference value: 0.1+/- 0.05%); type: functional
K562 [24] = assay: Induction of apoptosis in human K562 cells at 100 uM after 24 hrs by PI staining based flow cytometric analysis (reference value: 0.1+/- 0.05%); type: functional
K562 [25] = assay: Induction of autophagy in human K562 cells at 25 uM after 24 hrs (reference value: 3.9+/- 1.1%); type: functional
K562 [26] = assay: Induction of autophagy in human K562 cells at 50 uM after 24 hrs (reference value: 3.9+/- 1.1%); type: functional
K562 [27] = assay: Induction of autophagy in human K562 cells at 100 uM after 24 hrs (reference value: 3.9+/- 1.1%); type: functional

Row | Structure (SMILES) | IC50 (THP-1 [1]) [µM] | IC50 (THP-1 [2]) [µM] | IC50 (K562 [3]) [µM] | IC50 (K562 [4]) [µM] | IC50 (MCF7 [5]) [µM] | IC50 (MCF7 [6]) [µM] | IC50 (HUVEC [7]) [µM] | IC50 (HUVEC [8]) [µM] | also measured
1 | CC(CC[C@H]1/C(=C/c2ccc(I)cc2)CC[C@H]2C(C)(C)CCC[C@]12C)CC(=O)O (some centres not stated) | 68 | 33 | 98 | 55 | 89 | 50 | 194 | 100 | Activity (K562 [9]): 7.2%; Activity (K562 [10]): 44.5%; Activity (K562 [11]): 24.4%; Activity (K562 [12]): 24.1%; Activity (K562 [13]): 8.5%; Activity (K562 [14]): 43.3%; Activity (K562 [15]): 23.2%; Activity (K562 [16]): 21.9%; Activity (K562 [17]): 35.8%; Activity (K562 [18]): 27.5%; Activity (K562 [19]): 18.2%; Activity (K562 [20]): 17.1%; Activity (K562 [21]): 17.7%; Activity (K562 [22]): 2.4%; Activity (K562 [23]): 0.4%; Activity (K562 [24]): 1.1%; Activity (K562 [25]): 7.3%; Activity (K562 [26]): 14.6%; Activity (K562 [27]): 25.2%
2 | C=C1CC[C@H]2C(C)(C)CCC[C@]2(C)[C@H]1CCC(C)CC(=O)OC (some centres not stated) | > 200 | > 200 | > 200 | > 200 | > 200 | > 200 | > 200 | > 200 | –
3 | COc1cc([C@@H]2c3cc4c(cc3[C@@H](O[C@@H]3O[C@@H]5CO[C@@H](C)O[C@H]5[C@H](O)[C@H]3O)[C@H]3COC(=O)[C@H]23)OCO4)cc(OC)c1O [ETOPOSIDE] | 59 | < 6.25 | > 200 | 66 | > 100 | 50 | > 200 | 29 | Activity (K562 [17]): 13%; Activity (K562 [18]): 20.6%; Activity (K562 [19]): 26%; Activity (K562 [20]): 30.4%
4 | Cc1ccc(/C=C2\CC[C@H]3C(C)(C)CCC[C@]3(C)[C@H]2CCC(C)CC(=O)O)cc1 (some centres not stated) | > 200 | 91 | > 200 | > 200 | > 200 | > 200 | > 200 | > 200 | –
5 | COc1ccc(/C=C2\CC[C@H]3C(C)(C)CCC[C@]3(C)[C@H]2CCC(C)CC(=O)O)cc1OC (some centres not stated) | 178 | 106 | > 200 | > 200 | > 200 | > 200 | > 200 | > 200 | –
6 | C=C1CC[C@H]2C(C)(C)CCC[C@]2(C)[C@H]1CCC(C)CC(=O)O (some centres not stated) | > 200 | 132 | > 200 | > 200 | > 200 | > 200 | > 200 | 168 | –
7 | COc1ccc(/C=C2\CC[C@H]3C(C)(C)CCC[C@]3(C)[C@H]2CCC(C)CC(=O)O)cc1 (some centres not stated) | > 200 | > 200 | > 200 | > 200 | – | – | > 200 | > 200 | –
8 | O=c1[nH]cc(F)c(=O)[nH]1 [FLUOROURACIL] | – | – | – | – | > 200 | 166 | > 200 | 96 | –
9 | CC(CC[C@H]1/C(=C/c2ccc(Cl)cc2)CC[C@H]2C(C)(C)CCC[C@]12C)CC(=O)O (some centres not stated) | > 200 | > 200 | > 200 | > 200 | – | – | > 200 | > 200 | –
10 | CC(CC[C@H]1/C(=C/c2ccc(F)cc2)CC[C@H]2C(C)(C)CCC[C@]12C)CC(=O)O (some centres not stated) | > 200 | > 200 | > 200 | > 200 | – | – | > 200 | > 200 | –
11 | CC(CC[C@H]1/C(=C/c2ccc(Br)cc2)CC[C@H]2C(C)(C)CCC[C@]12C)CC(=O)O (some centres not stated) | > 200 | > 200 | > 200 | > 200 | – | – | > 200 | > 200 | –
12 | CC(CC[C@H]1/C(=C/c2ccc([N+](=O)[O-])cc2)CC[C@H]2C(C)(C)CCC[C@]12C)CC(=O)O (some centres not stated) | 180 | 68 | > 200 | 169 | > 200 | 124 | > 200 | 194 | –
